Numbered stars: 1 amine (or outer) side, 2 acyl side, 3 side chain; on linkers, the order of the positions; unused ones are H or OH. Bridge positions count the residues as written; N and C are the ends. Ends that are not written are not given here. Peptide text beside a SMILES is read from it. X1 = O=C(C=NOCCCCCCOc1cc(C[*:2])cc(C[*:3])c1)[*:1]; X2 = O=C(C=NOCc1cc(C[*:2])cc(C[*:3])c1)[*:1]; TSL6 = not defined here
Legend:
in vitro = details: for remaining at 5 h: isolated enzyme pronase
Experimental: The mixture was analyzed by ion-selective LCMS. […] Linear, disulfide and two bicycle compounds made from TSL-1 and TSL-6 linker were incubated with Pronase™ for the indicated period of time (up to 5 hours). The reaction was diluted and analyzed by Ion selective MS-UPLC. The numbers indicate % of intact compound remaining after 5 hours of digestion.
In another rigorous stability test, an aggressive cocktail of endo- and exoproteases (Pronase) were used to digest linear sequence [sequence]

Nodal = target: T1, Nodal (Homo sapiens, UniProt Q96S42); experiment: Inhibition of Nodal-induced Smad2 phosphorylation in P19 cells (Western blot, anti-phospho Smad antibody); format: cell-based; details: for ability to antagonize the signaling function of protein Nodal: carcinoma cells
T1 construct: host or cells: added to embryonic carcinoma P19 cells
T1 sequence (Q96S42 238-347): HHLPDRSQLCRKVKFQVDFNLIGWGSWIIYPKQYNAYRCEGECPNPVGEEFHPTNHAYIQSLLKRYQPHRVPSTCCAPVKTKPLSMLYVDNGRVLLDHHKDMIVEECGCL
Experimental: To validate the binding ability of the predicted ligands, we tested the ability of the bicycles to inhibit a known signaling event induced by Nodal. Specifically, we employed Western blot with anti-phospho Smad antibody to detect Nodal-induced phosphorylation of effector protein Smad2 in embryonic carcinoma P19 cells. FIG. 17a describes that treatment of P19 cells with 100 ng/mL Nodal for 1 hour in Dulbecco's Modified Eagles Media (DMEM) supplemented with 2.5% fetal bovine serum (FBS)+7.5% bovine serum albumin (BSA) induces increase in pSmad2 intensity. Nodal-induced increase in pSmad is abrogated when P19 cells are incubated with 100 ng/mL Nodal and known kinase inhibitors SB-431542. […] The bicyclic peptides serve as antagonists of Nodal at 100 micromolar concentration.

remaining at 5 h (in vitro) | Compound | other results
68 ± 14% | CC(C)C[C@@H]1NC(=O)[C@H](Cc2ccc(O)cc2)NC(=O)[C@@H]2CSCc3cc(cc(c3)OCCCCCCON=CC(=O)N[C@@H](Cc3c[nH]c4ccccc34)C(=O)N[C@@H](CC(=O)O)C(=O)N[C@@H](Cc3ccc(O)cc3)C(=O)N[C@@H](CCCNC(=N)N)C(=O)N[C@@H](CCC(=O)O)C(=O)N2)CSC[C@@H](C(=O)O)NC(=O)[C@H](CCC(=O)O)NC1=O (WDYRECYLEC-OH; linker N-6-10 via X1; C-terminus assumed) | –
82 ± 13% | CC(C)C[C@@H]1NC(=O)[C@H](Cc2ccc(O)cc2)NC(=O)[C@@H]2CSCc3cc(cc(c3)CSC[C@@H](C(=O)O)NC(=O)[C@H](CCC(=O)O)NC1=O)CON=CC(=O)N[C@@H](Cc1c[nH]c3ccccc13)C(=O)N[C@@H](CC(=O)O)C(=O)N[C@@H](Cc1ccc(O)cc1)C(=O)N[C@@H](CCCNC(=N)N)C(=O)N[C@@H](CCC(=O)O)C(=O)N2 (WDYRECYLEC-OH; linker N-6-10 via X2; C-terminus assumed) | half-life (in vitro; Streptomyces griseus): ~24 h
– | NC(=O)c1ccc(-c2nc(-c3ccc4c(c3)OCO4)c(-c3ccccn3)[nH]2)cc1 [SB-431542, reference compound] | Nodal-induced increase in pSmad with known kinase inhibitor (Nodal; P19 cells, 100 ng/mL Nodal, inhibitor concentration not given): abrogated
0.4 ± 0.1% | CC(C)C[C@H](NC(=O)[C@H](Cc1ccc(O)cc1)NC(=O)[C@H](CS)NC(=O)[C@H](CCC(=O)O)NC(=O)[C@H](CCCNC(=N)N)NC(=O)[C@H](Cc1ccc(O)cc1)NC(=O)[C@H](CC(=O)O)NC(=O)[C@H](Cc1c[nH]c2ccccc12)NC(=O)[C@@H](N)CO)C(=O)N[C@@H](CCC(=O)O)C(=O)N[C@@H](CS)C(=O)O [reference compound] (H-SWDYRECYLEC-OH; N-terminus and C-terminus assumed) | –
0.9 ± 0.4% | CC(C)C[C@@H]1NC(=O)[C@H](Cc2ccc(O)cc2)NC(=O)[C@@H](NC(=O)[C@H](CCC(=O)O)NC(=O)[C@H](CCCNC(=N)N)NC(=O)[C@H](Cc2ccc(O)cc2)NC(=O)[C@H](CC(=O)O)NC(=O)[C@H](Cc2c[nH]c3ccccc23)NC(=O)[C@@H](N)CO)CSSC[C@@H](C(=O)O)NC(=O)[C@H](CCC(=O)O)NC1=O [reference compound] (H-SWDYRECYLEC-OH; disulfide 7-11; N-terminus and C-terminus assumed) | –
– | SPCQRGHMFC (linker (positions not given here) via TSL6; reading uncertain; also: bicyclised with TSL6 linker) [bicyclic peptide 7] | ability to antagonize the signaling function of protein Nodal (Nodal): have the ability to antagonize
– | SYCKRAHKNC (linker (positions not given here) via TSL6; reading uncertain; also: bicyclised with TSL6 linker) [bicyclic peptide 11] | ability to antagonize the signaling function of protein Nodal (Nodal): have the ability to antagonize
